This is an account of results in patent publication US11739098B2 (BRISTOL-MYERS SQUIBB COMPANY, priority 2017, dated 2023).

What all share (type): cell-based
One test deals with T1, human TLR9 (Homo sapiens, UniProt Q9NR96).
T1 construct: host or cells: HEK-Blue cells (HEK293-derived reporter line)
T1 sequence (Q9NR96 26-1032): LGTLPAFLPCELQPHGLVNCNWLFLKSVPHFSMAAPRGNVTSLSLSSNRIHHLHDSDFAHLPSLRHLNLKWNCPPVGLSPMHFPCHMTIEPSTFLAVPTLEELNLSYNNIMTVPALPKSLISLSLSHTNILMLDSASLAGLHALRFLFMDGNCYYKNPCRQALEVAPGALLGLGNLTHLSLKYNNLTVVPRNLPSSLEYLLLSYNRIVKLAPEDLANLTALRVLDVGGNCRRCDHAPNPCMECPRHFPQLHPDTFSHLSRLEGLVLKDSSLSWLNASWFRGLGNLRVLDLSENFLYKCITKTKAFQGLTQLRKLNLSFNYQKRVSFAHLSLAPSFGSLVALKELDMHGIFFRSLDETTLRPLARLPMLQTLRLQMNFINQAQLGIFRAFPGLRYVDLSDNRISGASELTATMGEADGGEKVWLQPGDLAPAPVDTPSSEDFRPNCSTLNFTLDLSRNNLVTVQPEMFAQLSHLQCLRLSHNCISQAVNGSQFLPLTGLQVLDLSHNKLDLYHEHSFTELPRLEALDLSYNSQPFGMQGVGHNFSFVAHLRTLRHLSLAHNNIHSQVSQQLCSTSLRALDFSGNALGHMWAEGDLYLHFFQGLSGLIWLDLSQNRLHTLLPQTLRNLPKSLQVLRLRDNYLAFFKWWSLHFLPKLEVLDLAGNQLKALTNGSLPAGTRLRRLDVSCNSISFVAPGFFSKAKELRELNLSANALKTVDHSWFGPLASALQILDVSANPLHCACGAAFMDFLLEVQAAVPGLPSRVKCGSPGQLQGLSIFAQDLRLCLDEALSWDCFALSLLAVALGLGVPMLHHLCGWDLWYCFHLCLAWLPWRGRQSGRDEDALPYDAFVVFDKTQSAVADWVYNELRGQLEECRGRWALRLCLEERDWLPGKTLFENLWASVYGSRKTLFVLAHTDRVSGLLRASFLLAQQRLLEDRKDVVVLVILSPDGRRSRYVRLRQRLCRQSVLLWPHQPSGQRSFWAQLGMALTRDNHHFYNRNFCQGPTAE
The test is described as follows: TLR9 inhibition reporter assay (HEK-Blue cells, SEAP reporter, ODN2006 stimulation). Particulars: HEK-Blue cells overexpressing human TLR9, SEAP reporter, ODN2006 5 nM. The essentials:
(§1)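 Percent inhibition of agonist-induced SEAP secretion in HEK-Blue cells after 22 h at 37 °C. Stimuli: 7.5 μM gardiquimod, 15.9 μM R848, 5 nM ODN2006 for TLR7, TLR8 and TLR9, added after 30 min compound exposure over a 0.05 nM–50 μM range.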

For the next test, the target named is T2, human TLR7 (Homo sapiens, UniProt Q9NYK1).
T2 construct: host or cells: HEK-Blue cells (HEK293-derived reporter line)
T2 sequence (Q9NYK1 27-1049): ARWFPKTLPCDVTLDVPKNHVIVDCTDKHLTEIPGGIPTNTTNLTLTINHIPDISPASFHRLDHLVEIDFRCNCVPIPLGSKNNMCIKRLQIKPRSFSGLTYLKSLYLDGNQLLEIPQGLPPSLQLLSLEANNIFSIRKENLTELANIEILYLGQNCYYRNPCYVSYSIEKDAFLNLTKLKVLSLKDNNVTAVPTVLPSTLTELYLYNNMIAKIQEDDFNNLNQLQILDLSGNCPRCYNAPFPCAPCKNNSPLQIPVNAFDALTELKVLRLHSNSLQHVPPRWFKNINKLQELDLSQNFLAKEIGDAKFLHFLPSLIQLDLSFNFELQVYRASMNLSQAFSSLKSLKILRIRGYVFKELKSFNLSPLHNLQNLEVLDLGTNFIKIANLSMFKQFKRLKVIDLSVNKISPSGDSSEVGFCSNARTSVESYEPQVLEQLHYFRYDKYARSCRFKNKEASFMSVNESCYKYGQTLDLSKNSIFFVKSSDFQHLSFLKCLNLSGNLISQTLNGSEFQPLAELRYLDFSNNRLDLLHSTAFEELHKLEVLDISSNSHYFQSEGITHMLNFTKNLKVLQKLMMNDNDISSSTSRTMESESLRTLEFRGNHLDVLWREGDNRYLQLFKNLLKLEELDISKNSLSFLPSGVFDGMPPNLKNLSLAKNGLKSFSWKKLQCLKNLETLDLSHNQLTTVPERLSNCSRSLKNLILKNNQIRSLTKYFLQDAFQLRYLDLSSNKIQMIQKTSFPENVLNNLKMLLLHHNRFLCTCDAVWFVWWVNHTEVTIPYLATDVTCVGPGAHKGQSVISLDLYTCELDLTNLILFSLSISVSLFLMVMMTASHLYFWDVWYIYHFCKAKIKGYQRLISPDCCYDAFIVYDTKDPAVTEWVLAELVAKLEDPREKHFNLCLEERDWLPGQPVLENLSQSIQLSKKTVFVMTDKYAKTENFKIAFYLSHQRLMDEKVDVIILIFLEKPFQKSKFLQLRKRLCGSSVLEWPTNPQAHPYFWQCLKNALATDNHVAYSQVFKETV
The test is described as follows: TLR7 inhibition reporter assay (HEK-Blue cells, SEAP reporter, gardiquimod stimulation). Particulars: HEK-Blue cells overexpressing human TLR7, SEAP reporter, gardiquimod 7.5 μM. The essentials: as §1

For another test, the target named is T3, human TLR8 (Homo sapiens, UniProt Q9NR97).
T3 construct: host or cells: HEK-Blue cells (HEK293-derived reporter line)
T3 sequence (Q9NR97 27-1041): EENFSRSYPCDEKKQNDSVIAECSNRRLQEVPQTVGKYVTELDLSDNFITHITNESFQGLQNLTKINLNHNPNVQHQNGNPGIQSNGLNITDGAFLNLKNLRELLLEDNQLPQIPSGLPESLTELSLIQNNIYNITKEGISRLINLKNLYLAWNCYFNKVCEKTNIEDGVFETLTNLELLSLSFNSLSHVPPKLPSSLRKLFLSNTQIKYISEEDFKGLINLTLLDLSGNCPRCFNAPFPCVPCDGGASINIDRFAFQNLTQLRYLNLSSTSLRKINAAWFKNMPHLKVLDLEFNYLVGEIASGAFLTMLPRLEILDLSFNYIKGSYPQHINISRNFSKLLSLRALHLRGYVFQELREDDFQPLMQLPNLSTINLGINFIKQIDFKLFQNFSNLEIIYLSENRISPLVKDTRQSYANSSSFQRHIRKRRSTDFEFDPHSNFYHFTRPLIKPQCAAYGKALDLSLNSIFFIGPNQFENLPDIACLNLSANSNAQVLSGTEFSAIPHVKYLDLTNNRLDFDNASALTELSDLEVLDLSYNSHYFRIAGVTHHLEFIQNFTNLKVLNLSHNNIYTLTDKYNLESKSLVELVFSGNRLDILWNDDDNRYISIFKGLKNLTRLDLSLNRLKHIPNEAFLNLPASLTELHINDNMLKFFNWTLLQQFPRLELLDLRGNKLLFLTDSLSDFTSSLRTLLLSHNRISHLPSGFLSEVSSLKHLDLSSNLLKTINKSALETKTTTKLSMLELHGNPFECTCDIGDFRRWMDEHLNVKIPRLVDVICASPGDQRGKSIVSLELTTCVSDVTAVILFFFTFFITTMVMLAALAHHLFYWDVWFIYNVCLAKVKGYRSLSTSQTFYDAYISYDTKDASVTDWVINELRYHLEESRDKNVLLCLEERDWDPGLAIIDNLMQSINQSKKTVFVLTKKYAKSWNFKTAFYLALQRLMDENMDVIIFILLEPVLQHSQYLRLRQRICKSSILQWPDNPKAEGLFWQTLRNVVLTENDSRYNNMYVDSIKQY
The test is described as follows: TLR8 inhibition reporter assay (HEK-Blue cells, SEAP reporter, R848 stimulation). The note with it: HEK-Blue cells overexpressing human TLR8, SEAP reporter, R848 15.9 μM. The essentials:
as §1
A general note: In a reporter assay the amount or activity of a reporter protein is the signal.

A word on the IC50: it is the midpoint of a concentration-inhibition curve. Consider `Cc1c(-c2[nH]c3ccc(C4CCN(CC(=O)N(C)C)CC4)cc3c2C(C)C)c2cccnc2n1C` [Example 286, 2-(4-(2-(1,2-dimethyl-1H-pyrrolo[2,3-b]pyridin-3-yl)-3-isopropyl-1H-indol-5-yl)piperidin-1-yl)-N,N-dimethylacetamide], for which the IC50 against human TLR9 was 1 to 50 µM; against human TLR7 it was under 0.1 µM; at human TLR8, under 0.1 µM.

`Cc1c(-c2[nH]c3ccc(C4CCN(CC(=O)N(C)C)CC4)cc3c2C(C)C)ccc2c1cnn2C` [Example 382, 2-(4-(2-(1,4-dimethyl-1H-indazol-5-yl)-3-isopropyl-1H-indol-5-yl)piperidin-1-yl)-N,N-dimethylacetamide]: the values for the IC50 on human TLR9, at human TLR7 and against human TLR8 were 1 to 50 µM, under 0.1 µM and under 0.1 µM, respectively.

As for `COc1c[nH]c2nccc(-c3[nH]c4ccc(C5CCNCC5)cc4c3C)c12` [Example 213, 3-methoxy-4-(3-methyl-5-(piperidin-4-yl)-1H-indol-2-yl)-1H-pyrrolo[2,3-b]pyridine], the values for the concentration for half-maximal inhibition (IC50) at human TLR9, against human TLR7 and against human TLR8 were 1 to 50 µM, 1 to 50 µM and 0.1 to 1 µM, respectively.

`CNCCN1CCC(c2ccc3[nH]c(-c4cc5cc(OC)ccc5o4)c(C)c3c2)CC1` [Example 671, 2-(4-(2-(5-methoxybenzofuran-2-yl)-3-methyl-1H-indol-5-yl)piperidin-1-yl)-N-methylethan-1-amine]: the values for the 50% inhibitory concentration (IC50) at human TLR9, on human TLR7 and against human TLR8 were 1 to 50 µM, over 50 µM and over 3.13 µM, respectively.

As for `Cc1cc(-c2[nH]c3ccc(C4CCN(C(=O)CN5[C@@H]6CC[C@H]5COC6)CC4)cc3c2C(C)C)cn2nnnc12` [Example 479, 2-((1R,5S)-3-oxa-8-azabicyclo[3.2.1]octan-8-yl)-1-(4-(3-isopropyl-2-(8-methyltetrazolo[1,5-a]pyridin-6-yl)-1H-indol-5-yl)piperidin-1-yl)ethan-1-one], the values for the concentration for half-maximal inhibition (IC50) at human TLR9, on human TLR7 and at human TLR8 were 1 to 50 µM, under 0.1 µM and under 0.1 µM, respectively.

Take `CC(C)c1c(-c2ccnc3[nH]ncc23)[nH]c2ccc(C3CCN(Cc4ccccn4)CC3)cc12` [Example 866, 4-(3-isopropyl-5-(1-(pyridin-2-ylmethyl)piperidin-4-yl)-1H-indol-2-yl)-1H-pyrazolo[3,4-b]pyridine]: the figures for the IC50 against human TLR9, against human TLR7 and against human TLR8 were 1 to 50 µM, under 0.1 µM and under 0.1 µM, respectively.

For `CC(C)c1c(-c2ccnc3[nH]ncc23)[nH]c2ccc(C3CCN(Cc4nccc5ccccc45)CC3)cc12` [Example 910, 1-((4-(3-isopropyl-2-(1H-pyrazolo[3,4-b]pyridin-4-yl)-1H-indol-5-yl)piperidin-1-yl)methyl)isoquinoline], the IC50 at human TLR9 was in the range of 1 to 50 µM; on human TLR7, 0.1 to 1 µM; on human TLR8 it was 0.1 to 1 µM.

As for `CC(C)c1c(-c2ccc3ncnn3n2)[nH]c2ccc(C3CCN(C4CCOCC4)CC3)cc12` [Example 683, 6-(3-isopropyl-5-(1-(tetrahydro-2H-pyran-4-yl)piperidin-4-yl)-1H-indol-2-yl)-[1,2,4]triazolo[1,5-b]pyridazine], the IC50 against human TLR9 is 1 to 50 µM; against human TLR7, under 0.1 µM; on human TLR8, under 0.1 µM.

On to `CC(C)c1c(-c2ccn3ncnc3c2)[nH]c2ccc(C3CCNCC3)cc12` [Example 197, 7-(3-isopropyl-5-(piperidin-4-yl)-1H-indol-2-yl)-[1,2,4]triazolo[1,5-a]pyridine], for which the IC50 against human TLR9 was 1 to 50 µM; against human TLR7, under 0.1 µM; against human TLR8, under 0.1 µM.

As to `CNCCN1CCC(c2ccc3[nH]c(-c4ccnc5[nH]ncc45)c(C(C)C)c3c2)C(F)C1` (stereo not drawn) [Example 679, 2-(3-fluoro-4-(3-isopropyl-2-(1H-pyrazolo[3,4-b]pyridin-4-yl)-1H-indol-5-yl)piperidin-1-yl)-N-methylethan-1-amine], the results for the half-inhibitory concentration (IC50) against human TLR9, against human TLR7 and against human TLR8 were 0.1 to 1 µM, under 0.1 µM and under 0.1 µM, respectively.

Consider `CNCC(=O)N1CCC(c2ccc3[nH]c(-c4cc(OC)c5nccn5c4)c(C(C)C)c3c2)CC1` [Example 559, 1-(4-(3-isopropyl-2-(8-methoxyimidazo[1,2-a]pyridin-6-yl)-1H-indol-5-yl)piperidin-1-yl)-2-(methylamino)ethan-1-one], for which the IC50 is 0.1 to 1 µM against human TLR9, under 0.1 µM at human TLR7 and under 0.1 µM at human TLR8.

For the molecule `CNC(=O)CN1CCC(c2ccc3[nH]c(-c4cc(C)c5nccn5c4)c(C(C)C)c3c2)CC1` [Example 397, 2-(4-(3-isopropyl-2-(8-methylimidazo[1,2-a]pyridin-6-yl)-1H-indol-5-yl)piperidin-1-yl)-N-methylacetamide], the figures for the IC50 on human TLR9, against human TLR7 and against human TLR8 were 0.1 to 1 µM, under 0.1 µM and under 0.1 µM, respectively.

As for `CCc1c(-c2ccnc3[nH]cnc23)[nH]c2ccc(C3CCNCC3)cc12` [Example 59, 7-(3-ethyl-5-(piperidin-4-yl)-1H-indol-2-yl)-3H-imidazo[4,5-b]pyridine], the IC50 is 0.1 to 1 µM at human TLR9, under 0.1 µM against human TLR7 and under 0.1 µM at human TLR8.
